The record followed here is patent publication US11168073B2, “3,3-difluoroallylamines or salts thereof and pharmaceutical compositions comprising the same” (YUHAN CORPORATION, priority 2018, dated 2021).

What all share (format): biochemical
One assay concerns the target T1, recombinant human VAP-1 (Homo sapiens, UniProt Q16853).
T1 construct: purchased R&D systems
T1 sequence (Q16853 1-763): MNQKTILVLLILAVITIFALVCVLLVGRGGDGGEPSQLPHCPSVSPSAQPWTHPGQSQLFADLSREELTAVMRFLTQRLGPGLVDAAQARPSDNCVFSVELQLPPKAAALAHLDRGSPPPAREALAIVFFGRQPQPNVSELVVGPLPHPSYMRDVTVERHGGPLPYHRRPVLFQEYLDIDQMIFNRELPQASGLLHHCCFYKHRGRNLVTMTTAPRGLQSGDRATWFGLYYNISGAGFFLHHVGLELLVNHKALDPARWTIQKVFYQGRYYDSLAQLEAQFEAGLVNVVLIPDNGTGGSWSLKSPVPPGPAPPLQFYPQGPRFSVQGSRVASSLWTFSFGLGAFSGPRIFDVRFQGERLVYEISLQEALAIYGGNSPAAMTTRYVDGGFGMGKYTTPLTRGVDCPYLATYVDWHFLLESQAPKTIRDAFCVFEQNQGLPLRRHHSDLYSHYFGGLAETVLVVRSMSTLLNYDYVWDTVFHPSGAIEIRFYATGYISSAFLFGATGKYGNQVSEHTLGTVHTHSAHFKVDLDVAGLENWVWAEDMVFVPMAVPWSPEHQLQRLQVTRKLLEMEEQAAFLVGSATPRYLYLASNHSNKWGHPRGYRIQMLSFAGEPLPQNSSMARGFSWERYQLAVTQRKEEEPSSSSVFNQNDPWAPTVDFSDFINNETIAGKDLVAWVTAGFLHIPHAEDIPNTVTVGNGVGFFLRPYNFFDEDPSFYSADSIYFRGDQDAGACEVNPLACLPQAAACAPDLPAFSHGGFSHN
Description: Activity evaluation on recombinant human VAP-1 (Amplex Red/HRP-coupled hydrogen peroxide assay, benzylamine substrate). The note with it: read-out: Inhibitory Activity (IC50, nM) human VAP-1. Summed up: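 Recombinant human VAP-1 in 50 mM sodium phosphate pH 7.4 preincubated 30 min at 37 °C with compound (8-point 1:3 series, <1% DMSO), then 1 mM benzylamine, 200 uM Amplex Red, 1 U/mL HRP added. H2O2-derived resorufin fluorescence (ex 544/em 590) followed 1–2 h; IC50 from four-parameter fit of rate inhibition.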

In assay [1] the target is T2, recombinant human DAO (diamine oxidase) (Homo sapiens, UniProt P19801).
T2 construct: purchased R&D systems
T2 sequence (P19801 20-751): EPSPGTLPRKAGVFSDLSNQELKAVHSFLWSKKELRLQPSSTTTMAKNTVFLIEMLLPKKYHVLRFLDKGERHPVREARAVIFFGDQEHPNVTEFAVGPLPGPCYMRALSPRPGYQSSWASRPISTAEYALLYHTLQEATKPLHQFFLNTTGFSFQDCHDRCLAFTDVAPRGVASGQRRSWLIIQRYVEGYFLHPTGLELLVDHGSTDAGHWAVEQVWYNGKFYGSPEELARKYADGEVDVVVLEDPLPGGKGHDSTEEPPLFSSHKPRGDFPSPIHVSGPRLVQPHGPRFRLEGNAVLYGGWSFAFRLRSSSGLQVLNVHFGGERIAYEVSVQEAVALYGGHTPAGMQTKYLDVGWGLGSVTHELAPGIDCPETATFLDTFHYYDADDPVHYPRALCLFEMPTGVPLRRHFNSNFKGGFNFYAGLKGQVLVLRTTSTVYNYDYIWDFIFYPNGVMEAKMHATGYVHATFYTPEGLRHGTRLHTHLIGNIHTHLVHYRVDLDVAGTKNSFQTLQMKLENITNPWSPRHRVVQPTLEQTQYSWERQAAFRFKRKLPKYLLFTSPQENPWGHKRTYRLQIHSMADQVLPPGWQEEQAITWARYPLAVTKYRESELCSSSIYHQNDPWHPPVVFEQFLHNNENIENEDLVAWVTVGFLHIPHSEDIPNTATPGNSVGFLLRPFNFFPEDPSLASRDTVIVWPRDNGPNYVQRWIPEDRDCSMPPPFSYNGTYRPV
Description: Activity evaluation on recombinant human DAO (Amplex Red/HRP-coupled assay, 1 mM putrescine substrate). As to conditions: read-out: Inhibitory Activity (IC50, nM) DAO. Summed up:
(§1)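 Compounds preincubated 30 min at 37 °C with enzyme in 50 mM sodium phosphate pH 7.4 (final DMSO <1%, 8-point 1:3 dilutions); reaction started with 200 uM Amplex Red, 1 U/mL HRP and substrate (MAO-A 0.5 mM tyramine, MAO-B 1 mM benzylamine, DAO 1 mM putrescine). Resorufin fluorescence (ex 544/em 590 nm) followed over 1-2 h; IC50 from four-parameter logistic fit.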

Assay [2] has as its target T3, recombinant human MAO-A (monoamine oxidase-A) (Homo sapiens, UniProt P21397).
T3 construct: purchased Sigma-Aldrich
T3 sequence (P21397 1-527): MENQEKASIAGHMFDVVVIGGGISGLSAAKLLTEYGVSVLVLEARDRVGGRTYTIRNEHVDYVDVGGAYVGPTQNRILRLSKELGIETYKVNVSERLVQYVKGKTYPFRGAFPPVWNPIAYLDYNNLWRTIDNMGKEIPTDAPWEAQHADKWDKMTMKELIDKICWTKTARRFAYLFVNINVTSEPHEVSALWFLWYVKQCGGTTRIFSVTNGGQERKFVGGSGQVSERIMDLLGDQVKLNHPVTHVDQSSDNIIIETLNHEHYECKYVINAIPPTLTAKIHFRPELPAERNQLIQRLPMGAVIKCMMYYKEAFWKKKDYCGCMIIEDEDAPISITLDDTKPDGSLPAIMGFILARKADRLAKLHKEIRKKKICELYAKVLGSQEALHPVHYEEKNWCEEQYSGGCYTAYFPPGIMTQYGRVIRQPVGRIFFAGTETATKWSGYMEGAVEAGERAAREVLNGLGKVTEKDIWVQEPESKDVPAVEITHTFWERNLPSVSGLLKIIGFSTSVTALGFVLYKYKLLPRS
Description: Activity evaluation on recombinant human MAO-A (Amplex Red/HRP-coupled assay, 0.5 mM tyramine substrate). The note with it: read-out: Inhibitory Activity (IC50, nM) MAO-A. In a few lines: as §1

The target in assay [3] is T4, recombinant human MAO-B (monoamine oxidase-B) (Homo sapiens, UniProt P27338).
T4 construct: purchased Sigma-Aldrich
T4 sequence (P27338 1-520): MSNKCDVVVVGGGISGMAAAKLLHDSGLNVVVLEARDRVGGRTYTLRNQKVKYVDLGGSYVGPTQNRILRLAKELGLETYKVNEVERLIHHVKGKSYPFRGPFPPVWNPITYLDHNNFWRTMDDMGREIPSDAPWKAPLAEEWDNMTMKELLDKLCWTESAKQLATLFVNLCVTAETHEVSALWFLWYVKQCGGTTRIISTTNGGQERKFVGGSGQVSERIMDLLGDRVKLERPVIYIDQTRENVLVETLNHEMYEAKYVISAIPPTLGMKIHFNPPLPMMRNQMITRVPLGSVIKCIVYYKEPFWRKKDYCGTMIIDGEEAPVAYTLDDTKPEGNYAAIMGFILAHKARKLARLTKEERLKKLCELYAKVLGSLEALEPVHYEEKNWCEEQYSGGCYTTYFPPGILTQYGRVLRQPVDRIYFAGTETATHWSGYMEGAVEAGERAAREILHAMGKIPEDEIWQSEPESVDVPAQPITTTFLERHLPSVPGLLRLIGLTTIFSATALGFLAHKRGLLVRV
The assay is described as follows: Activity evaluation on recombinant human MAO-B (Amplex Red/HRP-coupled assay, 1 mM benzylamine substrate). As to conditions: read-out: Inhibitory Activity (IC50, nM) MAO-B. In a few lines:
as §1

The mark [4] stands for this setting: recombinant human VAP-1, 30 min preincubation at 37° C., 1 mM benzylamine.
[5] abbreviates: recombinant human VAP-1, benzylamine substrate.

Structures can show the parent of a compound that is named as a salt. Where two headings read alike, the source gives them in different places.

Broadly, the IC50 is the point on the concentration scale where inhibition reaches its midpoint. For the compound `NCC(Cn1ncn(Cc2ccc(-c3ccc4c(c3)COC(=O)N4)s2)c1=O)=C(F)F` [Example 143, 6-[5-[[1-[2-(aminomethyl)-3,3-difluoro-allyl]-5-oxo-1,2,4-triazol-4-yl]methyl]-2-thienyl]-1,4-dihydro-3,1-benzoxazin-2-one Trifluoroacetate], the IC50 on recombinant human VAP-1 (setting [4]) was 0.2 nM; in assay [1] (1 mM putrescine), above 10000 nM; in assay [2] (0.5 mM tyramine), above 100000 nM; in assay [3] (1 mM benzylamine), 6400 nM.
The corresponding values for `Cc1cc(-c2cnc(-n3cnn(CC(CN)=C(F)F)c3=O)c(F)c2)cc2c1NC(=O)CC2` [Example 86, 6-[6-[1-[2-(aminomethyl)-3,3-difluoro-allyl]-5-oxo-1,2,4-triazol-4-yl]-5-fluoro-3-pyridyl]-8-methyl-3,4-dihydro-1H-quinolin-2-one Trifluoroacetate] are 0.1 nM, 33 nM, above 100000 nM and 640 nM.
With `CN(C)c1ccc(-c2ccc(-n3cnn(CC(CN)=C(F)F)c3=O)cn2)cn1` [Example 41, 2-[2-(aminomethyl)-3,3-difluoro-allyl]-4-[6-[6-(dimethylamino)-3-pyridyl]-3-pyridyl]-1,2,4-triazol-3-one Trifluoroacetate], the IC50 was 0.2 nM on recombinant human VAP-1 (setting [4]), 120 nM in assay [1] (1 mM putrescine), above 100000 nM in assay [2] (0.5 mM tyramine) and 470 nM in assay [3] (1 mM benzylamine).
Regarding `CN(C)c1ccc(-c2csc(Cn3cnn(CC(CN)=C(F)F)c3=O)c2)cn1` [Example 149, 2-[2-(aminomethyl)-3,3-difluoro-allyl]-4-[[4-[6-(dimethylamino)-3-pyridyl]-2-thienyl]methyl]-1,2,4-triazol-3-one Trifluoroacetate], the IC50 at recombinant human VAP-1 (setting [4]) was 0.6 nM; in assay [1] (1 mM putrescine) it was above 10000 nM; in assay [2] (0.5 mM tyramine), above 100000 nM; in assay [3] (1 mM benzylamine), above 100000 nM.
Turning to `Cc1cc(-c2ccc(N(C)C)nc2)cnc1-n1cnn(CC(CN)=C(F)F)c1=O` [Example 71, 2-[2-(aminomethyl)-3,3-difluoro-allyl]-4-[5-[6-(dimethylamino)-3-pyridyl]-3-methyl-2-pyridyl]-1,2,4-triazol-3-one Trifluoroacetate], the 50% inhibitory concentration (IC50) at recombinant human VAP-1 (setting [4]) was 0.8 nM; in assay [1] (1 mM putrescine), above 100000 nM; in assay [2] (0.5 mM tyramine), above 100000 nM; in assay [3] (1 mM benzylamine), above 100000 nM.
On to `CCn1cc(-c2csc(Cn3cnn(CC(CN)=C(F)F)c3=O)c2)ccc1=O` [Example 193, 5-[5-[[1-[2-(aminomethyl)-3,3-difluoro-allyl]-5-oxo-1,2,4-triazol-4-yl]methyl]-3-thienyl]-1-ethyl-pyridin-2-one Trifluoroacetate], for which the IC50 at recombinant human VAP-1 (setting [5]) is 1.3 nM; in assay [1] (1 mM putrescine substrate) it was 8700 nM; in assay [2] (0.5 mM tyramine substrate) it was above 100000 nM; in assay [3] (1 mM benzylamine substrate), above 100000 nM.
With `NCC(Cn1ncn(CCc2ccc(-c3ccc(N4CCNCC4)cc3)s2)c1=O)=C(F)F` [Example 174, 2-[2-(aminomethyl)-3,3-difluoro-allyl]-4-[2-[5-(4-piperazin-1-ylphenyl)-2-thienyl]ethyl]-1,2,4-triazol-3-one Ditrifluoroacetate], the IC50 at recombinant human VAP-1 (setting [4]) was 1.3 nM; in assay [1] (1 mM putrescine) it was 29 nM; in assay [2] (0.5 mM tyramine), above 100000 nM; in assay [3] (1 mM benzylamine), above 100000 nM.
In the case of `CS(=O)(=O)c1ccc(-c2csc(Cn3cnn(CC(CN)=C(F)F)c3=O)c2)cc1` [Example 146, 2-[2-(aminomethyl)-3,3-difluoro-allyl]-4-[[4-(4-methylsulfonylphenyl)-2-thienyl]methyl]-1,2,4-triazol-3-one Trifluoroacetate], the IC50 is 1.1 nM on recombinant human VAP-1 (setting [4]), 9200 nM in assay [1] (1 mM putrescine), above 100000 nM in assay [2] (0.5 mM tyramine) and 33000 nM in assay [3] (1 mM benzylamine).
Regarding `Cc1cc(-c2ccc(-n3cnn(CC(CN)=C(F)F)c3=O)cn2)cc2c1NC(=O)CC2` [Example 43, 6-[5-[1-[2-(aminomethyl)-3,3-difluoro-allyl]-5-oxo-1,2,4-triazol-4-yl]-2-pyridyl]-8-methyl-3,4-dihydro-1H-quinolin-2-one Trifluoroacetate], the IC50 on recombinant human VAP-1 (setting [4]) is 0.2 nM; in assay [1] (1 mM putrescine), 22 nM; in assay [2] (0.5 mM tyramine), above 100000 nM; in assay [3] (1 mM benzylamine), 100 nM.
The corresponding values for `CNC(=O)c1ccc(-c2ccc(Cn3cnn(CC(CN)=C(F)F)c3=O)s2)cc1` [Example 104, 4-[5-[[1-[2-(aminomethyl)-3,3-difluoro-allyl]-5-oxo-1,2,4-triazol-4-yl]methyl]-2-thienyl]-N-methyl-benzamide trifluoroacetate] are 0.5 nM, 31000 nM, above 100000 nM and above 10000 nM.
In the case of `NCC(Cn1ncn(-c2cccc(-c3ccc(N4CCOCC4)nc3)n2)c1=O)=C(F)F` [Example 215, 2-[2-(aminomethyl)-3,3-difluoro-allyl]-4-[6-(6-morpholino-3-pyridyl)-2-pyridyl]-1,2,4-triazol-3-one Trifluoroacetate], the IC50 is 0.7 nM on recombinant human VAP-1 (setting [5]), 280 nM in assay [1] (1 mM putrescine substrate), above 100000 nM in assay [2] (0.5 mM tyramine substrate) and above 100000 nM in assay [3] (1 mM benzylamine substrate).
